The source of these data is patent US20120225062A1 (priority 2011, published 2012).

By IC50 is commonly meant the concentration at which inhibition is half-maximal. Read a high IC50 as a need for much substance. Broadly, the EC50 is the midpoint of the concentration-response curve. Higher therefore signals lower potency in that assay.

The target of one test is Pim 1 (Homo sapiens, UniProt P11309). Description: Pim 1 AlphaScreen assay (high ATP). Background: In Alpha technology, singlet oxygen from a donor bead excites a nearby acceptor bead.
In test [1] the test system is KMS11 (human myeloma cell line). Description: Cell Proliferation Assay (CellTiter-Glo, 3 days). The format is cell-based. Conditions: KMS-11, 72 h, KMS11-luc cells. The procedure, abridged: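 EC50 from CellTiter-Glo luminescence after 3-day, 37° C compound treatment of KMS11 cells seeded at 2000 per well in IMDM plus 10% FBS.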
In a further test the target is Pim 2 (Homo sapiens, UniProt Q9P1W9). The experiment in a line: Pim 2 AlphaScreen assay (high ATP).
The target in another test is Pim 3 (Homo sapiens, UniProt Q86V86). The experiment in a line: Pim 3 AlphaScreen assay (high ATP).

Structures are written as SMILES.

Sequence of Pim 2 (Q9P1W9 whole entry): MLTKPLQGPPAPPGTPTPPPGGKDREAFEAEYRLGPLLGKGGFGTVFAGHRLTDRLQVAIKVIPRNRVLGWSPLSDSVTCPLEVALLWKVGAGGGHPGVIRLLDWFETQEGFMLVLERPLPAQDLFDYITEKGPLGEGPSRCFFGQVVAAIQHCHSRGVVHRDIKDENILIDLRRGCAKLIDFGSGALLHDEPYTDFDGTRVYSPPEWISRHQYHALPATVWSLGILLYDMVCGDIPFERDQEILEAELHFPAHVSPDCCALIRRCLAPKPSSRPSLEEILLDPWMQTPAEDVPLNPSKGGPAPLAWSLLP
Sequence of Pim 1 (P11309 whole entry): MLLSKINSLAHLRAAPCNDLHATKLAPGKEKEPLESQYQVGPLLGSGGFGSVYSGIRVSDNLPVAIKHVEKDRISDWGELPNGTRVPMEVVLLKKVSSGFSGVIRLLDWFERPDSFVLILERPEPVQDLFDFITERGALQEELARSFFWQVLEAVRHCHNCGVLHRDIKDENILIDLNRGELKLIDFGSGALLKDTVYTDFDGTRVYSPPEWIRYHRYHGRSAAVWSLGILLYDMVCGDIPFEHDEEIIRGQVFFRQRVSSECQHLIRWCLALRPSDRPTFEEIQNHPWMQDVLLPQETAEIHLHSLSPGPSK
Procedure for Pim 1: The activity of Pim 1, Pim 2, & Pim 3 is measured using a homogeneous bead based system quantifying the amount of phosphorylated peptide substrate resulting from kinase-catalyzed phosphoryl transfer to a peptide substrate. Compounds to be tested are dissolved in 100% DMSO and directly distributed to a white 384-well plate at 0.25 μl per well. […] This is followed by the addition of 5 μl/well of Pim 1, Pim 2 or Pim 3 kinase in assay buffer (concentrations described below). Final assay concentrations (described below) are in 2.5% DMSO. The reactions are performed for ˜2 hours, then stopped by the addition of 10 μl of 0.75 μg/ml anti-phospho Ser/Thr antibody (Cell Signaling), 10 μg/ml Protein A AlphaScreen beads (Perkin Elmer), and 10 μg/ml streptavidin coated AlphaScreen beads in stop/detection buffer (50 mM EDTA, 95 mM Tris, pH=7.5, 0.01% Tween-20). The stopped reactions are incubated overnight in the dark. The phosphorylated peptide is detected via an oxygen anion initiated chemiluminescence/fluorescence cascade using the Envision plate reader (Perkin Elmer).

On to `C[C@@H]1C[C@H](N)C[C@H](c2ccncc2NC(=O)c2ccc(F)c(-c3c(F)cc([C@@H]4CCOC4)cc3F)n2)C1` [Example 206, N-(4-((1R,3S,5S)-3-amino-5-methylcyclohexyl)pyridin-3-yl)-6-(2,6-difluoro-4-((S)-tetrahydrofuran-3-yl)phenyl)-5-fluoropicolinamide], for which the results for the IC50 at Pim 1, against Pim 2 and on Pim 3 were 10 pM, 1660 pM and 800 pM, respectively. The same compound came in with an EC50 in test [1] of 59000 pM.
For `C[C@@H]1C[C@H](N)C[C@H](c2ccncc2NC(=O)c2ccc(F)c(-c3c(F)cc([C@H]4CCOC4)cc3F)n2)C1` [Example 207, N-(4-((1R,3S,5S)-3-amino-5-methylcyclohexyl)pyridin-3-yl)-6-(2,6-difluoro-4-((R)-tetrahydrofuran-3-yl)phenyl)-5-fluoropicolinamide], the IC50 against Pim 1 was 10 pM; at Pim 2, 1230 pM; against Pim 3, 130 pM. In test [1], this compound returned an EC50 of 96000 pM.
On to `COc1ccc(F)c(-c2nc(C(=O)Nc3cnccc3[C@@H]3C[C@H](C)C[C@H](N)C3)ccc2F)c1F` [Example 212, N-(4-((1R,3S,5S)-3-amino-5-methylcyclohexyl)pyridin-3-yl)-6-(2,6-difluoro-3-methoxyphenyl)-5-fluoropicolinamide], for which the IC50 came to 30 pM on Pim 1, 3770 pM against Pim 2 and 1030 pM on Pim 3. For the same compound, in test [1], the EC50 was 50000 pM.
`COc1ccc(F)c(-c2nc(C(=O)Nc3cnccc3N3C[C@@H](N)[C@H](O)[C@@H](C)C3)ccc2F)c1F` [Example 214, N-(4-((3R,4R,5S)-3-amino-4-hydroxy-5-methylpiperidin-1-yl)pyridin-3-yl)-6-(2,6-difluoro-3-methoxyphenyl)-5-fluoropicolinamide]: the IC50 on Pim 1 was 30 pM; against Pim 2 it was 1070 pM; at Pim 3 it was 370 pM. This compound registered an EC50 in test [1] of 32000 pM.
Taken in the same sequence, the figures for `COC(=O)c1cc(F)c(-c2nc(C(=O)Nc3cnccc3N3C[C@@H](N)[C@H](O)[C@@H](C)C3)ccc2F)c(F)c1` [Example 215, methyl 4-(6-((4-((3R,4R,5S)-3-amino-4-hydroxy-5-methylpiperidin-1-yl)pyridin-3-yl)carbamoyl)-3-fluoropyridin-2-yl)-3,5-difluorobenzoate] were 60 pM, 2540 pM, 880 pM and 36000 pM.
For `CCOc1ccc(F)c(-c2nc(C(=O)Nc3cnccc3N3C[C@@H](N)[C@H](O)[C@@H](C)C3)ccc2F)c1F` [Example 216, N-(4-((3R,4R,5S)-3-amino-4-hydroxy-5-methylpiperidin-1-yl)pyridin-3-yl)-6-(3-ethoxy-2,6-difluorophenyl)-5-fluoropicolinamide], the figures for the IC50 against Pim 1, at Pim 2 and against Pim 3 were 20 pM, 2020 pM and 390 pM, respectively. The same compound registered an EC50 in test [1] of 28000 pM.
In the case of `Cc1cc(F)c(-c2nc(C(=O)Nc3cnccc3[C@H]3C[C@@H](N)[C@H](O)[C@@H](C)C3)c(N)cc2F)c(F)c1` [Example 219, 3-amino-N-(4-((1R,3R,4R,5S)-3-amino-4-hydroxy-5-methylcyclohexyl)pyridin-3-yl)-6-(2,6-difluoro-4-methylphenyl)-5-fluoropicolinamide], the values for the IC50 against Pim 1, against Pim 2 and against Pim 3 were 30 pM, 2010 pM and 650 pM, respectively. Moreover, the EC50 in test [1] stood at 23000 pM.
The corresponding values for `C[C@@H]1C[C@H](N)C[C@H](c2ccncc2NC(=O)c2nc(-c3c(F)cc(C4(O)CCC4)cc3F)c(F)cc2N)C1` [Example 220, 3-amino-N-(4-((1R,3S,5S)-3-amino-5-methylcyclohexyl)pyridin-3-yl)-6-(2,6-difluoro-4-(1-hydroxycyclobutyl)phenyl)-5-fluoropicolinamide] are 10 pM, 640 pM, 140 pM and 8000 pM.
